Where two headings read alike, the source gives them in different places.
Legend:
[1] = for % from t0: processed extract sample, 24h
[2] = tested on: Mycobacterium tuberculosis; set-up: method as in PMID 20086151, PMID 22926573, PMID 25987624, PMID 30126954; conditions: preclinical models; cited from earlier work
[3] = 24 h
[4] = human
[5] = tested on: bacteria (general anti-bacterial activity); set-up: method as in PMID 24500695; conditions: cited from earlier work
[6] = tested on: Mycobacterium tuberculosis; conditions: in vitro, Mycobacterium tuberculosis; cited from earlier work
[7] = human, 6 h

With `O=c1nc(N2CCN(CC3CCCCC3)CC2)sc2c([N+](=O)[O-])cc(C(F)(F)F)cc12` [PBTZ169, macozinone] the “change in processed samples” value ([1]; after 24h at RT, medium level) was -30%, the “% from t0” value ([1]; 4°C, level H (QC 1500 ng/mL)) was -15% and the “% from t0” value ([1]; 4°C, level L (QC 2 ng/mL)) was 5%. For the same compound, the “% from t0” value ([1]; 4°C, level M (QC 150 ng/mL)) was -7%, the “% from t0” value ([1]; RT, level H (QC 1500 ng/mL)) was -8% and the “% from t0” value ([1]; RT, level L (QC 2 ng/mL)) was -3%. The “% from t0” value ([1]; RT, level M (QC 150 ng/mL)) was 2%, the “effect in combination with clofazimine or bedaquiline” value [2] was “synergistic effect” and the “effect in combination with isoniazide, moxifloxacin, rifampicin” value [2] was “additive effect”. For the same compound, the “time stable in citrated human plasma” value [3] was “at least 24 h”, the “% from t0” value ([4]; 1 h, 10 ng/mL) was 1% and the “% from t0” value ([4]; 1 h, 20 ng/mL) was 2%. For the same compound, the “% from t0” value ([4]; 1 h, 50 ng/mL) was -1%, the “% from t0” value ([4]; 1 h, 100 ng/mL) was 3% and the “% from t0” value ([4]; 1 h, 200 ng/mL) was 1%. The “% from t0” value ([4]; 1 h, 500 ng/mL) was 0%, the “% from t0” value ([4]; 2 h, 10 ng/mL) was 0% and the “% from t0” value ([4]; 2 h, 20 ng/mL) was 2%. The “% from t0” value ([4]; 2 h, 50 ng/mL) was -3%, the “% from t0” value ([4]; 2 h, 100 ng/mL) was -1% and the “% from t0” value ([4]; 2 h, 200 ng/mL) was -3%. The “% from t0” value ([4]; 2 h, 500 ng/mL) was -4%, the “% from t0” value ([4]; 4 h, 10 ng/mL) was -1% and the “% from t0” value ([4]; 4 h, 20 ng/mL) was -1%. For the same compound, the “% from t0” value ([4]; 4 h, 50 ng/mL) was -7%, the “% from t0” value ([4]; 4 h, 100 ng/mL) was 0% and the “% from t0” value ([4]; 4 h, 200 ng/mL) was -2%. For the same compound, the “% from t0” value ([4]; 4 h, 500 ng/mL) was -3%, the general anti-bacterial activity [5] was “no general anti-bacterial activity” and the “minimum inhibitory concentration (MIC)” value [6] was “below 0.0005 μg/mL”. The “% from freshly processed samples (n=2)” value ([7]; 0.1 ng/mL) was 19%, the “% from freshly processed samples (n=2)” value ([7]; 0.2 ng/mL) was 11% and the “% from freshly processed samples (n=2)” value ([7]; 0.5 ng/mL) was -12%. For the same compound, the “% from freshly processed samples (n=2)” value ([7]; 1 ng/mL) was -4%, the “% from freshly prepared samples” value ([7]; 2 ng/mL) was 5% and the “% from freshly processed samples (n=2)” value ([7]; 2 ng/mL) was -3%. For the same compound, the “% from freshly processed samples (n=2)” value ([7]; 50 ng/mL) was 7%, the “% from freshly prepared samples” value ([7]; 150 ng/mL) was -3% and the “% from freshly processed samples (n=2)” value ([7]; 500 ng/mL) was -4%. The “% from freshly processed samples (n=2)” value ([7]; 1000 ng/mL) was -10%, the “% from freshly prepared samples” value ([7]; 1500 ng/mL) was -7% and the “% from freshly processed samples (n=2)” value ([7]; 2000 ng/mL) was -1%.

— PMC6544242, “Development and validation of a multiplex UHPLC-MS/MS method for the determination of the investigational antibiotic against multi-resistant tuberculosis macozinone (PBTZ169) and five active metabolites in human plasma” (PLoS ONE, 2019)
